Source: patent publication US20240034736A1, “HSD17B13 INHIBITORS AND USES THEREOF” (FL2022-001, Inc., priority 2020, published 2024)

Target: Recombinant human HSD17B13 enzyme (Homo sapiens (Human), UniProt Q7Z5P4)
Experiment: HSD17b13 NAD(P)H-Glo Biochemical Assay
Settings: 50 uM estradiol, 1 mM NAD+; read-out: HSD17β13 IC50
Procedure: Recombinant human HSD17B13 enzyme. Substrate: estradiol (Sigma β-Estradiol E8875), 100 mM in DMSO. […] Assay buffer final concentration: 20 mM Tris pH7.4 with 0.002% Tween-20 and 0.02% BSA. […] Enzymatic activity detected by NAD(P)H-Glo™ Detection System (Promega G9062).
Inhibitor compounds were serially diluted in DMSO and then further diluted in assay buffer to a 10× concentration consisting of 1% DMSO.
HSD17b13 enzyme was diluted in 1× assay buffer to the desired enzyme concentration based on the specific activity of the enzyme lot. 20 uL of diluted enzyme was added to each well along with 2.5 uL of 10× inhibitor solution. Assay plate was incubated at RT for 20 minutes, and then 2.5 uL of a 10× substrate/cofactor mix was added to each well for a final concentration of 50 uM estradiol and 1 mMNAD+. Assay plate was incubated at 37° C. for 3 hours. NAD(P)H-Glo™ Detection System reagents were prepared according to manufacturer's specifications, and 25 uL was added to each well. After incubating for 1 hour at RT, luminescence was measured.

Sequence of Recombinant human HSD17B13 enzyme (Q7Z5P4 20-300): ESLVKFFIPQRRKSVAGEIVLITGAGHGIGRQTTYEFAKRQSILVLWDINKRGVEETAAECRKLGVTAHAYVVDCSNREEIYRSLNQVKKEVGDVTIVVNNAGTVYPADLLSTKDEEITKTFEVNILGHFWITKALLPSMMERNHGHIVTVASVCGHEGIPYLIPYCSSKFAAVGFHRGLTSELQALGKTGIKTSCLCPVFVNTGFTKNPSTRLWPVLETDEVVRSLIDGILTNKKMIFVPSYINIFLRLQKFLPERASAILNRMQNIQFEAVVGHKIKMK

IC50 [µM]	Compound
0.1 to 1	CN(C)C(=O)c1ccc(-c2ccc3c(cnn3-c3ccc(F)c(O)c3)c2)c(Cl)c1 [Compound 5.10, 3-Chloro-4-(1-(4-fluoro-3-hydroxyphenyl)-1H-indazol-5-yl)-N,N-dimethylbenzamide]
0.1 to 1	N#Cc1ccc(-c2ccc3c(cnn3-c3ccc(F)c(O)c3)c2)c(Cl)c1 [Compound 5.11, 3-Chloro-4-(1-(4-fluoro-3-hydroxyphenyl)-1H-indazol-5-yl)benzonitrile]
0.1 to 1	OCc1ccc(-c2ccc3c(cnn3-c3ccc(F)c(O)c3)c2)c(Cl)c1 [Compound 5.12, 5-(5-(2-Chloro-4-(hydroxymethyl)phenyl)-1H-indazol-1-yl)-2-fluorophenol]
0.1 to 1	CNS(=O)(=O)c1ccc(-c2ccc3c(cnn3-c3ccc(F)c(O)c3)c2)cc1 [Compound 5.13, 4-(1-(4-Fluoro-3-hydroxyphenyl)-1H-indazol-5-yl)-N-methylbenzenesulfonamide]
1 to 30	CS(=O)(=O)Nc1ccccc1-c1ccc2c(cnn2-c2ccc(F)c(O)c2)c1 [Compound 5.14, N-(2-(1-(4-Fluoro-3-hydroxyphenyl)-1H-indazol-5-yl)phenyl)methanesulfonamide]
0.1 to 1	Oc1cc(-n2ncc3cc(-c4ccc(C(F)F)cc4)ccc32)ccc1F [Compound 5.15, 5-(5-(4-(Difluoromethyl)phenyl)-1H-indazol-1-yl)-2-fluorophenol]
0.1 to 1	Oc1ccc(-c2ccc3c(cnn3-c3ccc(F)c(O)c3)c2)c(C(F)(F)F)c1 [Compound 5.16, 2-Fluoro-5-(5-(4-hydroxy-2-(trifluoromethyl)phenyl)-1H-indazol-1-yl)phenol]
0.1 to 1	Cc1n[nH]c(C)c1-c1ccc2c(cnn2-c2ccc(F)c(O)c2)c1 [Compound 5.17, 5-(5-(3,5-Dimethyl-1H-pyrazol-4-yl)-1H-indazol-1-yl)-2-fluorophenol]
0.1 to 1	CC(=O)Nc1ccc(-c2ccc3c(cnn3-c3ccc(F)c(O)c3)c2)c(Cl)c1 [Compound 5.18, N-(3-Chloro-4-(1-(4-fluoro-3-hydroxyphenyl)-1H-indazol-5-yl)phenyl)acetamide]
0.1 to 1	Cc1cc(O)ccc1-c1ccc2c(cnn2-c2ccc(F)c(O)c2)c1 [Compound 5.19, 2-Fluoro-5-(5-(4-hydroxy-2-methylphenyl)-1H-indazol-1-yl)phenol]
0.1 to 1	COc1ccccc1-c1ccc2c(cnn2-c2ccc(F)c(O)c2)c1 [Compound 5.20, 2-Fluoro-5-(5-(2-methoxyphenyl)-1H-indazol-1-yl)phenol]
1 to 30	COc1cccc(-c2ccc3c(cnn3-c3ccc(F)c(O)c3)c2)c1 [Compound 5.21, 2-Fluoro-5-(5-(3-methoxyphenyl)-1H-indazol-1-yl)phenol]
0.1 to 1	COc1ccc(-c2ccc3c(cnn3-c3ccc(F)c(O)c3)c2)cc1 [Compound 5.22, 2-Fluoro-5-(5-(4-methoxyphenyl)-1H-indazol-1-yl)phenol]
1 to 30	O=C(O)c1ccccc1-c1ccc2c(cnn2-c2ccc(F)c(O)c2)c1 [Compound 5.23, 2-(1-(4-Fluoro-3-hydroxyphenyl)-1H-indazol-5-yl)benzoic acid]
1 to 30	O=C(O)c1cccc(-c2ccc3c(cnn3-c3ccc(F)c(O)c3)c2)c1 [Compound 5.24, 3-(1-(4-Fluoro-3-hydroxyphenyl)-1H-indazol-5-yl)benzoic acid]
0.1 to 1	CN(C)S(=O)(=O)c1ccc(-c2ccc3c(cnn3-c3ccc(F)c(O)c3)c2)cc1 [Compound 5.25, 4-(1-(4-Fluoro-3-hydroxyphenyl)-1H-indazol-5-yl)-N,N-dimethylbenzenesulfonamide]
0.1 to 1	CNC(=O)c1ccc(-c2ccc3c(cnn3-c3ccc(F)c(O)c3)c2)c(Cl)c1 [Compound 5.26, 3-Chloro-4-(1-(4-fluoro-3-hydroxyphenyl)-1H-indazol-5-yl)-N-methylbenzamide]

IC50 [µM]	Compound
0.1 to 1	Oc1ccc(-c2ncc3c(cnn3-c3ccc(F)c(O)c3)n2)c(Cl)c1 [Compound 5.27, 5-(5-(2-Chloro-4-hydroxyphenyl)-1H-pyrazolo[4,3-d]pyrimidin-1-yl)-2-fluorophenol]
1 to 30	Oc1cc(-n2ncc3nc(-c4ccc(O)c(Cl)c4)ncc32)ccc1F [Compound 5.28, 2-Chloro-4-(1-(4-fluoro-3-hydroxyphenyl)-1H-pyrazolo[4,3-d]pyrimidin-5-yl)phenol]
1 to 30	O=C(O)COc1ccc(-c2ccc3c(cnn3-c3ccc(F)c(O)c3)c2)cc1 [Compound 5.29, 2-(4-(1-(4-Fluoro-3-hydroxyphenyl)-1H-indazol-5-yl)phenoxy)acetic acid]
0.1 to 1	Oc1cc(-c2noc3cc(-c4ccc(O)c(Cl)c4)ccc23)ccc1F [Compound 5.30, 2-Chloro-4-(3-(4-fluoro-3-hydroxyphenyl)benzo[d]isoxazol-6-yl)phenol]
0.1 to 1	N#Cc1ccccc1-c1ccc2c(cnn2-c2ccc(F)c(O)c2)c1 [Compound 6, 2-(1-(4-Fluoro-3-hydroxyphenyl)-1H-indazol-5-yl)benzonitrile]
0.1 to 1	N#Cc1cccc(-c2ccc3c(cnn3-c3ccc(F)c(O)c3)c2)c1 [Compound 6.01, 3-(1-(4-Fluoro-3-hydroxyphenyl)-1H-indazol-5-yl)benzonitrile]
0.1 to 1	Oc1cc(-n2ncc3cc(-c4cncc(Cl)c4)ccc32)cc(F)c1F [Compound 7, 5-(5-(5-Chloropyridin-3-yl)-1H-indazol-1-yl)-2,3-difluorophenol]
0.1 to 1	COc1ccc(-c2ccc3c(cnn3-c3cc(O)c(F)c(F)c3)c2)cn1 [Compound 7.01, 2,3-Difluoro-5-(5-(6-methoxypyridin-3-yl)-1H-indazol-1-yl)phenol]
0.1 to 1	Cc1ccc(-c2ccc3c(cnn3-c3cc(O)c(F)c(F)c3)c2)cn1 [Compound 7.02, 2,3-Difluoro-5-(5-(6-methylpyridin-3-yl)-1H-indazol-1-yl)phenol]
0.1 to 1	Oc1cncc(-c2ccc3c(cnn3-c3cc(O)c(F)c(F)c3)c2)c1 [Compound 7.03, 5-(1-(3,4-Difluoro-5-hydroxyphenyl)-1H-indazol-5-yl)pyridine-3-ol]
0.1 to 1	Oc1cc(-n2ncc3cc(-c4cncc(F)c4)ccc32)cc(F)c1F [Compound 7.04, 2,3-Difluoro-5-(5-(5-fluoropyridin-3-yl)-1H-indazol-1-yl)phenol]
0.1 to 1	Oc1ccc(-c2ccc3c(cnn3-c3ccc(F)c(O)c3F)c2)cc1Cl [Compound 8, 3-(5-(3-Chloro-4-hydroxyphenyl)-1H-indazol-1-yl)-2,6-difluorophenol]
0.1 to 1	Oc1cc(-n2ncc3cc(-c4ccc(O)c(Cl)c4)cnc32)ccc1F [Compound 8.01, 2-Chloro-4-(1-(4-fluoro-3-hydroxyphenyl)-1H-pyrazolo[3,4-b]pyridine-5-yl)phenol]
0.1 to 1	Oc1cc(-n2ncc3cc(-c4ccc(O)c(Cl)c4)ccc32)c(F)cc1F [Compound 8.02, 5-(5-(3-Chloro-4-hydroxyphenyl)-1H-indazol-1-yl)-2,4-difluorophenol]
1 to 30	Oc1cc(-n2ncc3nc(-c4ccc(O)c(Cl)c4)ccc32)ccc1F [Compound 8.03, 2-Chloro-4-(1-(4-fluoro-3-hydroxyphenyl)-1H-pyrazolo[4,3-b]pyridine-5-yl)phenol]
0.1 to 1	Nc1ccc(-c2ccc3c(cnn3-c3ccc(F)c(O)c3)c2)c(Cl)c1 [Compound 9, 5-(5-(4-Amino-2-chlorophenyl)-1H-indazol-1-yl)-2-fluorophenol]
